Reference: publication PMC9609861, “Nebivolol as a Potent TRPM8 Channel Blocker: A Drug-Screening Approach through Automated Patch Clamping and Ligand-Based Virtual Screening” (Membranes, 2022)
Read-outs that look alike come from different tables or passages of the source.

Target: T1, human TRPM8 (Homo sapiens, UniProt Q7Z2W7)
T1 construct: expressed in transfected cells
Assay: Automated patch clamp (IonFlux 16) of menthol-evoked TRPM8 currents in HEK293 cells stably expressing human TRPM8
Assay type: cell-based
Protocol: HEK293 cells, stably expressing human TRPM8 (GenBank number NM_024080), were cultured in T75 tissue culture flasks using Dulbecco’s modified Eagle medium (Euroclone, Pero, Italy), supplemented with 10% FBS (Euroclone, Pero, Italy) plus Geneticin (Sigma-Aldrich, St. Louis, MI, USA) 800 μg/mL at 37° C, in a humidified 5% CO2 atmosphere. The cells were maintained until they reached 70~80% confluency. Prior to use, the cells were washed twice with Ca^2+ and Mg^2+ free PBS (Euroclone, Pero, Italy), subsequently detached using Accutase (Euroclone, Pero, Italy), and kept in suspension using CHO-SFM-II medium (Gibco, by Thermo Fisher Scientific, Carlsbad, CA, USA). The cells were then resuspended in the external solution after a centrifugation at 1000 rpm for 2 min. Single-cells suspension, with a final concentration of 3–5 million cells/mL, was required for the automated patch clamp electrophysiology procedure.
We performed automated patch clamp recordings by using the IonFlux 16 system (Fluxion Biosciences, Alameda, CA, USA). The procedure includes four automated phases—prime, trap, break, and data acquisition—in the whole-cells voltage clamp. The cells were voltage clamped at a holding potential of −60 mV, stepped to −100 mV, ramped to +100 mV in 200 ms, and finally stepped back to −60 mV. Voltage command was executed every 5 s, and currents were recorded with a sampling rate of 5 kHz. […] The interval range between each application was 90 s, and intervals included washing cells with an external solution-containing vehicle. However, the duration of each application was adjusted based on each drug’s lipophilicity and kinetic of inhibition. For leakage subtraction, leakage was measured by applying a short 20 mV pulse (typically from −80 mV to −100 mV) at the beginning of each sweep to measure the current difference. By assuming linear leakage and subtracting proportional currents from each of the different voltage command segments, the software performs automatic leakage subtraction. […] The extracellular solution contained 140 mM NaCl, 4 mM KCl, 1 mM MgCl2, 10 mM glucose, and 10 mM HEPES, pH 7.4 with NaOH and 310 mOsm. We removed Ca^2+ from the external solution to avoid the Ca^2+-dependent desensitization of TRPM8. The intracellular solution contained the following (mM): 60 CsCl, 70 CsF, 5 Na2ATP, 10 HEPES, and 10 EGTA, pH 7.2 with CSOH and 295 mOsm. All recordings were performed at a temperature of 20 ± 1 °C.
All compounds were obtained from Sigma-Aldrich. Stock solutions were prepared in 50 mM of dimethyl sulfoxide (DMSO) and stored at −20° C.
The analysis of the data was carried out using the ‘data analyzer software’ (Data Analyzer v. 5.0 (beta), Fluxion Biosciences, Alameda, CA, USA), Microsoft Excel 365, and the Prism 9.0 software (GraphPad Software Inc., San Diego, CA, USA). The average current density of the last three recordings at +80 mV in each application period was used as the current amplitude.
IC50 and EC50 were calculated by fitting the four-parameter Hill equation using GraphPad Prism.
Four-parameter Hill equation: f(x)=Imin+(Imax−Imin/1+(C50/x)^h)
Data are expressed as the mean ± standard deviation (SD).

[1] = HEK293; read-out: Average Percentage Inhibition at 10 µM
[2] = at concentrations higher than IC50, prolonged washing, data not shown
[3] = read-out: IC50, inhibition of menthol-induced TRPM8 current
[4] = at concentrations higher than 50 µM

T1 sequence (Q7Z2W7 whole entry): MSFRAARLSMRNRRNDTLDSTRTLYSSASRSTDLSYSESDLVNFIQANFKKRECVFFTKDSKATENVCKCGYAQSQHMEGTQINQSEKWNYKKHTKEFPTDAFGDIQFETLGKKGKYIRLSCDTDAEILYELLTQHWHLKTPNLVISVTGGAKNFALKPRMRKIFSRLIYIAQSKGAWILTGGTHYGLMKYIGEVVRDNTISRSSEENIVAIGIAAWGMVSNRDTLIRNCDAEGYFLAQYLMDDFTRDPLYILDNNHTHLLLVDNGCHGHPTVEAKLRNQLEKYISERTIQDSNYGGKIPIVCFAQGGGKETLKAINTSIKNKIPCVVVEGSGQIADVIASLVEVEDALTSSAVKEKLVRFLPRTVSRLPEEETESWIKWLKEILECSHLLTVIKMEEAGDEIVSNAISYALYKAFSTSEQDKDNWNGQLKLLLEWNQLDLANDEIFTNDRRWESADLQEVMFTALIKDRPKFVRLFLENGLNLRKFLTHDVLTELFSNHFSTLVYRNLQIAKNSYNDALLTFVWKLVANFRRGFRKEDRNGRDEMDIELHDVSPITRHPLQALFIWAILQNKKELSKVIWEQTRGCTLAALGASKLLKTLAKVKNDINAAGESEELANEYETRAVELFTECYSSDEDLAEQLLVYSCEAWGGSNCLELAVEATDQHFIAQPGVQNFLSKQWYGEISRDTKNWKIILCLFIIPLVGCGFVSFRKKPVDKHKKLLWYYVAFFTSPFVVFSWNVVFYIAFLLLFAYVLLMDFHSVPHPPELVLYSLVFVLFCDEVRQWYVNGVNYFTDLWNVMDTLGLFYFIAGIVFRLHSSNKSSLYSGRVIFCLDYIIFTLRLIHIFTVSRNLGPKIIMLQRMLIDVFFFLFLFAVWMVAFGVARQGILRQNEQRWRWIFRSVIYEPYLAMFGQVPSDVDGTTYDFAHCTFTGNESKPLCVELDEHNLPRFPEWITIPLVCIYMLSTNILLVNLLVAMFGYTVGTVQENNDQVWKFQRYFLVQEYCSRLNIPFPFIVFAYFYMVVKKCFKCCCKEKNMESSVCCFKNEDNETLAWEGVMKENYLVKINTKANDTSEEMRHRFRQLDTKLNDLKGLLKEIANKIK

Structure (SMILES) | inhibition at 10 µM [1] [%] | other results
Cc1cccc(COc2ccccc2C(=O)N(CCCN)Cc2cccs2)c1.Cl [AMTB, N-(3-Aminopropyl)-2-[(3-methylphenyl)methoxy]-N-(2-thienylmethyl)benzamide hydrochloride] |  | Block of menthol-activated currents (1 µM AMTB): fully blocked
CCCC(=O)Nc1ccc(OCC(O)CNC(C)C)c(C(C)=O)c1 (stereo not drawn) [Acebutolol, acebutolol] | 0 | 
CC(C)NCC(O)COc1ccc(CC(N)=O)cc1 (stereo not drawn) [Atenolol, atenolol] | 0 | 
NC(=O)N1c2ccccc2C=Cc2ccccc21 [Carbamazepine, carbamazepine] | 0 | 
COc1ccccc1OCCNCC(O)COc1cccc2[nH]c3ccccc3c12 (stereo not drawn) [Carvedilol, carvedilol] | 57 | Reversibility of the inhibiting effect on washing [2]: irreversible inhibiting effect; IC50 [3]: 9.1 ± 0.6 µM; Blocking effect on TRPM8 menthol-evoked currents (β-blocker screen): showed a blocking effect
O=C(NCC1CCCCN1)c1cc(OCC(F)(F)F)ccc1OCC(F)(F)F (stereo not drawn) [Flecainide, flecainide] | 0 | Block of outward TRPM8 currents induced by menthol [4]: partial block
NCC1(CC(=O)O)CCCCC1 [Gabapentin, gabapentin] |  | inhibition at 10 µM (HEK293, read-out: Average Percentage Inhibition at 10 µM): 0%
Nc1nnc(-c2cccc(Cl)c2Cl)c(N)n1 [Lamotrigine, lamotrigine] | 0 | 
COCCc1ccc(OCC(O)CNC(C)C)cc1 (stereo not drawn) [Metoprolol, metoprolol] | 0 | 
Cc1cccc(C)c1OCC(C)N (stereo not drawn) [Mexiletine, mexiletine] | 0 | 
CC(C)(C)NCC(O)COc1cccc2c1CC(O)C(O)C2 (stereo not drawn) [Nadolol, nadolol] | 0 | 
OC(CNCC(O)C1CCc2cc(F)ccc2O1)C1CCc2cc(F)ccc2O1 (stereo not drawn) [Nebivolol, nebivolol] | 100 | Reversibility of the inhibiting effect on washing [2]: irreversible inhibiting effect; Inhibitory effect of nebivolol compared with carvedilol (electrophysiological data): ten times stronger; IC50 [3]: 0.97 ± 0.15 µM; Blocking effect on TRPM8 menthol-evoked currents (β-blocker screen): showed a blocking effect
NC(=O)N1c2ccccc2CC(=O)c2ccccc21 [Oxcarbazepine, oxcarbazepine] | 0 | 
O=C1NC(=O)C(c2ccccc2)(c2ccccc2)N1 [Phenytoin, phenytoin] | 0 | Block of outward TRPM8 currents induced by menthol [4]: partial block
CCCNCC(O)COc1ccccc1C(=O)CCc1ccccc1 (stereo not drawn) [Propafenone, propafenone] | 26 | Block of outward TRPM8 currents induced by menthol (below 50 µM): significant blocking capacity; IC50 [3]: 16.8 ± 5 µM
CC(C)NCC(O)COc1cccc2ccccc12 (stereo not drawn) [Propranolol, propranolol] | 12 | IC50 [3]: 45 ± 7 µM; Blocking effect on TRPM8 menthol-evoked currents (β-blocker screen): showed a blocking effect
COc1ccccc1OCC(O)CN1CCN(CC(=O)Nc2c(C)cccc2C)CC1 (stereo not drawn) [Ranolazine, ranolazine] | 0 | 
Nc1nc2ccc(OC(F)(F)F)cc2s1 [Riluzole, riluzole] | 0 | 
NC(=O)c1cn(Cc2c(F)cccc2F)nn1 [Rufinamide, rufinamide] | 0 | 
CCCCNc1ccc(C(=O)OCCN(C)C)cc1 [Tetracaine, tetracaine] | 0 | 
